pIC50: −log10 of the molar value.
Experiments:
[1] = tested on: MCF-7 human mammary gland adenocarcinoma cells; experiment: Cell proliferation assay (secondary assay), CyQUANT, MCF-7; type: cell-based; settings: MCF7, MCF-7, 72h exposure, 0.1% DMSO
Method: (§1) Compounds are tested in a cell proliferation assay using the following cell lines:
Both cell lines are free of Mycoplasma contamination (PCR Mycoplasma Detection Set, Takara). MCF-7 are kept in MEM medium (Gibco) supplemented with 10% FCS and 1% Non Essential Amino Acids at 37° C. in a 5% CO2 humidified incubator.
(§2) Cells are seeded in 96-well plates at a density of 20,000 cells/ml (3,000 cells/well) and after 24 h they are exposed to different concentrations of compounds in 0.1% DMSO. Cells are grown for a further 72h, the media is removed and the cells are frozen at −80° C. for at least 30 minutes and lysed in a solution containing the CyQUANT dye. […] Therefore the fluorescence intensity is proportional to the number of cells present in each well and can be quantified using a multiwell fluorimeter by measuring the fluorescence of the solution at 520 nm.
(§3) The percent activity of the compounds in reducing cell number is calculated as follow: % activity={(A^S−B)/(A^C−B)}×100 where: […]
(§4) A^S is the fluorescence at 520 nm in the presence of the tested compound (Sample).
(§5) A^C is the fluorescence at 520 nm in the presence of vehicle 0.1% DMSO (Control).
(§6) B is the fluorescence at 520 nm in the absence of cells (Background fluorescence).
(§7) The IC50 is defined as the concentration at which a given compound achieves 50% activity. IC50 values are calculated using the XLfit software package (version 2.0.5).

[2] = tested on: MDA-MB-231 human mammary gland adenocarcinoma cells; experiment: Cell proliferation assay (secondary assay), CyQUANT, MDA-MB-231; type: cell-based; settings: MDA-MB-231, 72h exposure, 0.1% DMSO
Method: as §1
MDA-MB-231 are kept in L-15 (Leibovitz) medium (Gibco) supplemented with 15% FCS at 37° C. in a non-modified atmosphere, humidified incubator.
as §2, §3, §4, §5, §6, §7

[3] = tested on: histone deacetylase activity (total lysates from K562 cells or HeLa nuclear extracts); experiment: Deacetylase assay (primary assay), fluorescent acetylated-lysine substrate; type: biochemical, human; settings: 30 minutes, 116 μM fluorescent substrate, 1% DMSO; read-out: IC50 (histone deacetylase enzymatic activity)
Method: Compounds are tested for their capacity to inhibit histone deacetylase activity (primary assay) and for their biological effects on growing cells (secondary assay).
Total lysates from K562 chronic human myelogenous leukemia cells (obtained from American Type Culture Collection, Rockville, Md.) are used as source of HDAC activity. Cells are grown in RPMI media supplied with 10% FCS, harvested by centrifugation, washed once in PBS and resuspended at a density of 24×10^6/ml in HDA buffer (15 mM Potassium phosphate pH 7.5, 5% glycerol, 0.2 mM EDTA). After sonication, lysates are centrifuged at 1000 g for 20 minutes and the resulting supernatant is aliquoted and stored at −80° C. Alternatively, commercially available HeLa nuclear extracts (BIOMOL) are used as source of histone deacetylase activity.
The assay was carried out for 30 minutes using 116 μM of a fluorescent substrate containing an acetylated lysine (BIOMOL). When deacetylation of the lysine occurs, the substrate can react with the added developer producing a fluorophore. The amount of fluorophore produced is proportional to the HDAC activity in the sample and is quantified using a multiwell fluorimeter capable of excitation at 360 nm and detection at 450 nm.
Compounds are diluted in DMSO prior to addition to assay buffer, the final DMSO concentration in the assay being 1%.
The percent activity of the compounds in reducing histone deacetylase enzymatic activity is calculated as follow: % activity={(F^S−B)/(F^C−B)}×100 where: […]
F^S is the fluorescence at 450 nm in the presence of the tested compound (Sample).
F^C is the fluorescence at 450 nm in the presence of vehicle 1% DMSO (Control). B is the fluorescence at 450 nm in the absence of enzyme (Background fluorescence)
as §7

Row | Structure (SMILES) | pIC50 [1] | pIC50 [2] | pIC50 [3]
1 | Cn1nc(C(F)(F)F)cc1-c1ccc(C(=O)NO)s1 [Example 1 (a), 5-(2-Methyl-5-trifluoromethyl-2H-pyrazol-3-yl)-thiophene-2-carboxylic acid hydroxyamide] | 4.96 | 4.49 | 
2 | O=C(NO)c1ccc(-c2ccc(NCc3cc4ccccc4o3)cn2)s1 [Example 1 (ba), 5-{5-[(Benzofuran-2-ylmethyl)-amino]-pyridin-2-yl}-thiophene-2-carboxylic acid hydroxyamide] | 6.22 | 5.70 | 7.21
3 | NS(=O)(=O)c1cccc(NC(=O)Cn2ccc(-c3ccc(C(=O)NO)s3)n2)c1 [Example 1 (dc), 5-{1-[(3-Sulfamoyl-phenylcarbamoyl)-methyl]-1H-pyrazol-3-yl}-thiophene-2-carboxylic acid hydroxyamide] |  |  | 6.62
4 | O=C(NO)c1ccc(-c2ccccc2)s1 [Example 1 (g), 5-Phenyl-thiophene-2-carboxylic acid hydroxyamide] | 4.51 | 4.36 | 6.05
5 | O=C(NO)c1ccc(-c2ccn(Cc3ccccc3)n2)s1 [Example 1 (l), 5-(1-Benzyl-1H-pyrazol-3-yl)-thiophene-2-carboxylic acid hydroxyamide] | 5.68 | 5.35 | 6.82
6 | O=C(NO)c1ccc(-c2nccc(OCc3ccccc3)n2)s1 [Example 1 (z), 5-(4-Benzyloxy-pyrimidin-2-yl)-thiophene-2-carboxylic acid hydroxyamide] | 5.64 | 5.14 | 7.12
